SMILES strings stand for the structures.

Test [1] addresses DNA-PK/Ku70/Ku85 (Homo sapiens) (UniProt P78527+P12956+P13010). Description: Inhibition of human recombinant DNAPK at 15 nM in presence of ATP by radiometric assay relative to control. Type of test: protein-complex assay.
The target of test [2] is Serine/threonine-protein kinase 32C (Homo sapiens) (UniProt Q86UX6). Description: Inhibition of human recombinant YANK3 at 15 nM related to control ULK1.
Test [3] deals with T1, Tyrosine-protein kinase JAK3 (Homo sapiens) (UniProt P52333).
T1 sequence (whole entry): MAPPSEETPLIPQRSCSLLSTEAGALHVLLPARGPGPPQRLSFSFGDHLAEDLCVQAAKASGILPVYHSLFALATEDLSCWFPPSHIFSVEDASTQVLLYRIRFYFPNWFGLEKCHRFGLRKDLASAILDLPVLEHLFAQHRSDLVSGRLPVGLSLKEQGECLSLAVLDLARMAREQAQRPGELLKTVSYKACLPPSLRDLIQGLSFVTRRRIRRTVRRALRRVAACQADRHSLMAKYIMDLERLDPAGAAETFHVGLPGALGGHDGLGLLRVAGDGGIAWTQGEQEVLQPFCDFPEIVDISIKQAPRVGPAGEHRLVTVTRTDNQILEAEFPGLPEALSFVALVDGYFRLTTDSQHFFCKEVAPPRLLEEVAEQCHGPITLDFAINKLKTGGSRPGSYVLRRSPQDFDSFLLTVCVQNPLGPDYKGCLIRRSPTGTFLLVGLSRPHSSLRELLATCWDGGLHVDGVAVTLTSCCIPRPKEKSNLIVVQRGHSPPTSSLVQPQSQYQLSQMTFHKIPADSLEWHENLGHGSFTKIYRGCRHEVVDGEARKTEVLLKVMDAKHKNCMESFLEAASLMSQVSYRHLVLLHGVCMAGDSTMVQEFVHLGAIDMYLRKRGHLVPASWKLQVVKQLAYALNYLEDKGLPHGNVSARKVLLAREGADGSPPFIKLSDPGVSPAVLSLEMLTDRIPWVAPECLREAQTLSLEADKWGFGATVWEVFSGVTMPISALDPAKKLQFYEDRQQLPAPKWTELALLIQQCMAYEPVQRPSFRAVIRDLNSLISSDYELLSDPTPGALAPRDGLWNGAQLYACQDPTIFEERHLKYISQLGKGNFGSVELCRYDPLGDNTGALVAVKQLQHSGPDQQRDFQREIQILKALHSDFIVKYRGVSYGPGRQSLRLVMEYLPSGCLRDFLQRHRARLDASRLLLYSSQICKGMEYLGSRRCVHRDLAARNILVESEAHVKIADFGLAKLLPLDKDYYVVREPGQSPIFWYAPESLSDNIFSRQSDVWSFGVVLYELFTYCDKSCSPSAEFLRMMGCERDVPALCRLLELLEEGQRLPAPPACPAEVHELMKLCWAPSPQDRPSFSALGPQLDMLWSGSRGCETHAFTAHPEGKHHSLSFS
Description: Inhibition of human recombinant JAK3 at 15 nM related to control ULK1.

For test [4], the target named is T2, Serine/threonine-protein kinase TAO3 (Homo sapiens) (UniProt Q9H2K8).
T2 sequence (whole entry): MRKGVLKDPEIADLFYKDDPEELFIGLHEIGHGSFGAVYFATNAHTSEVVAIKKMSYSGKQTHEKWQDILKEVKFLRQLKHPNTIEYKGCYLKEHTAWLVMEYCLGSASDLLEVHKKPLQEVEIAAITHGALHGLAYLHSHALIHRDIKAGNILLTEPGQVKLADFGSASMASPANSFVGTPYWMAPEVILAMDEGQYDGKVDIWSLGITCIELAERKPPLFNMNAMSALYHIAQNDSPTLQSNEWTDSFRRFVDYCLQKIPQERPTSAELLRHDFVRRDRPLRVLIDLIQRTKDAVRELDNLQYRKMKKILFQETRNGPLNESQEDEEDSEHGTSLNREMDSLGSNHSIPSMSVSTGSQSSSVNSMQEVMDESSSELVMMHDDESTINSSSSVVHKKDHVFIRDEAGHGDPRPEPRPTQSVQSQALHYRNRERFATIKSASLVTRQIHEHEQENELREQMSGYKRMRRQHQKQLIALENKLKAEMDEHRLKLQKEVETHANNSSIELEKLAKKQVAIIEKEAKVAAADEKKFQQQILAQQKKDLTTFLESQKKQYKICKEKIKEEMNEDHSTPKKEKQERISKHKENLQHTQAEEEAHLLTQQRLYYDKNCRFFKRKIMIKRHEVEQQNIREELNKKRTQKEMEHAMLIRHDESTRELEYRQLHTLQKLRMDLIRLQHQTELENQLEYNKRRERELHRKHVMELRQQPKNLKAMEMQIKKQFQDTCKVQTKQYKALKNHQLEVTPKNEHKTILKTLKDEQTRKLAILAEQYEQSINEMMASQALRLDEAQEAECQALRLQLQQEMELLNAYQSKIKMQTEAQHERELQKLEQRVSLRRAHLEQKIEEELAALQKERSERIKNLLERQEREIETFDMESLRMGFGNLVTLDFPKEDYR
Description: Inhibition of human recombinant TAO3 at 40 nM related to control ULK1.

Test [5] has as its target Fibroblast growth factor receptor 4 (Homo sapiens) (UniProt P22455). Description: Inhibition of human recombinant FGFR4 at 40 nM in presence of ATP by radiometric assay relative to control.
For test [6], the target named is Homeodomain-interacting protein kinase 2 (Homo sapiens) (UniProt Q9H2X6). Description: Inhibition of human recombinant HIPK2 at 40 nM related to control ULK1.
Chain of Homeodomain-interacting protein kinase 2 (Homo sapiens) (Q9H2X6 whole entry, looked up): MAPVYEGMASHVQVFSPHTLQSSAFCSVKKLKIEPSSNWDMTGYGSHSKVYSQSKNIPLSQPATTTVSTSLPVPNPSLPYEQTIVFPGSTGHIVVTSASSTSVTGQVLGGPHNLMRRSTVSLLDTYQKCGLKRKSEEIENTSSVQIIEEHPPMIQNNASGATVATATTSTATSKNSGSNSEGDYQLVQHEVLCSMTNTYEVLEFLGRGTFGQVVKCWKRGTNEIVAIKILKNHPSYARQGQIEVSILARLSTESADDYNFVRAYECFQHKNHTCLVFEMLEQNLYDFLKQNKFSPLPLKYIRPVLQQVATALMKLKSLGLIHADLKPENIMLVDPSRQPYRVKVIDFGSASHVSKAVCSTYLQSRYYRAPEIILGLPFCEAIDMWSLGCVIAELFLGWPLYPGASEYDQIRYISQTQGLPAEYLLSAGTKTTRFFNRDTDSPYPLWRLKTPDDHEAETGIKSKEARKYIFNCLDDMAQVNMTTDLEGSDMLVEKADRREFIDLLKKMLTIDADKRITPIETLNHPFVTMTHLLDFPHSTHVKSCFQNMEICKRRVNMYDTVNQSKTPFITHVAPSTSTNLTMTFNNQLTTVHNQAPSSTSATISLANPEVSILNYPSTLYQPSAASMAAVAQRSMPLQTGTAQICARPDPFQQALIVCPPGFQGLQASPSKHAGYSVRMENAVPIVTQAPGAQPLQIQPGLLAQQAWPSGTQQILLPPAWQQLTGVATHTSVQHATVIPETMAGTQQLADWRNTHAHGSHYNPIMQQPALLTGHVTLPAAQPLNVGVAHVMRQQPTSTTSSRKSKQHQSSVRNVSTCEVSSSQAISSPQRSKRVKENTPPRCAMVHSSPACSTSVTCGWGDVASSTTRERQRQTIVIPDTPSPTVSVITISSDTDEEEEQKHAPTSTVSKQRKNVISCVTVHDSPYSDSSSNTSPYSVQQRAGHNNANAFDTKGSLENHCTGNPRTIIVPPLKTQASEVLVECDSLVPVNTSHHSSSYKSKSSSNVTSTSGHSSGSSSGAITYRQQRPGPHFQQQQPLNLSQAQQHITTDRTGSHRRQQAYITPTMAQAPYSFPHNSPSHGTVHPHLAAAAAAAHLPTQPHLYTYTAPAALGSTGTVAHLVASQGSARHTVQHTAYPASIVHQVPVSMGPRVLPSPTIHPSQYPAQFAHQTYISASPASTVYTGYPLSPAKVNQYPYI
The target of test [7] is Wee1-like protein kinase (Homo sapiens) (UniProt P30291). Description: Inhibition of human recombinant Wee1 at 40 nM related to control ULK1.
Chain of Wee1-like protein kinase (Homo sapiens) (P30291 whole entry, looked up): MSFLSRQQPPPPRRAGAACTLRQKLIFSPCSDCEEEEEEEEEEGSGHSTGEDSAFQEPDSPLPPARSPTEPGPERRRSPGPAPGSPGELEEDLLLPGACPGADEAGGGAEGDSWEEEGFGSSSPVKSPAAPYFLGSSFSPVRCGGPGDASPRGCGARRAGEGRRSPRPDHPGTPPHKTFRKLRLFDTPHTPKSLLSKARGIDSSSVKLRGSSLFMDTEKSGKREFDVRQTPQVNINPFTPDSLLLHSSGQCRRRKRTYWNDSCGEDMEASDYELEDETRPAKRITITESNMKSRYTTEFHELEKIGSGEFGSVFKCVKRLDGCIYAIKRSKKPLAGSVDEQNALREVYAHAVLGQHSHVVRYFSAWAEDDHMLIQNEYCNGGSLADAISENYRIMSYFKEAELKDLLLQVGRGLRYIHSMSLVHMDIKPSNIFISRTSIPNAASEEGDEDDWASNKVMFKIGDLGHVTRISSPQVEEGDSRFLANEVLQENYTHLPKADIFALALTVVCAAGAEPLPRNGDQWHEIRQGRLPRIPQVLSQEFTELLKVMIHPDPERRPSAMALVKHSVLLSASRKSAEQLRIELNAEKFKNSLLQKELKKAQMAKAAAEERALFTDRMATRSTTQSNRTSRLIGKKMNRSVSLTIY
For test [8], the target named is Ephrin type-A receptor 4 (Homo sapiens) (UniProt P54764). Description: Inhibition of human recombinant EphA4 at 40 nM in presence of ATP by radiometric assay relative to control.
Chain of Ephrin type-A receptor 4 (Homo sapiens) (P54764 whole entry, canonical isoform): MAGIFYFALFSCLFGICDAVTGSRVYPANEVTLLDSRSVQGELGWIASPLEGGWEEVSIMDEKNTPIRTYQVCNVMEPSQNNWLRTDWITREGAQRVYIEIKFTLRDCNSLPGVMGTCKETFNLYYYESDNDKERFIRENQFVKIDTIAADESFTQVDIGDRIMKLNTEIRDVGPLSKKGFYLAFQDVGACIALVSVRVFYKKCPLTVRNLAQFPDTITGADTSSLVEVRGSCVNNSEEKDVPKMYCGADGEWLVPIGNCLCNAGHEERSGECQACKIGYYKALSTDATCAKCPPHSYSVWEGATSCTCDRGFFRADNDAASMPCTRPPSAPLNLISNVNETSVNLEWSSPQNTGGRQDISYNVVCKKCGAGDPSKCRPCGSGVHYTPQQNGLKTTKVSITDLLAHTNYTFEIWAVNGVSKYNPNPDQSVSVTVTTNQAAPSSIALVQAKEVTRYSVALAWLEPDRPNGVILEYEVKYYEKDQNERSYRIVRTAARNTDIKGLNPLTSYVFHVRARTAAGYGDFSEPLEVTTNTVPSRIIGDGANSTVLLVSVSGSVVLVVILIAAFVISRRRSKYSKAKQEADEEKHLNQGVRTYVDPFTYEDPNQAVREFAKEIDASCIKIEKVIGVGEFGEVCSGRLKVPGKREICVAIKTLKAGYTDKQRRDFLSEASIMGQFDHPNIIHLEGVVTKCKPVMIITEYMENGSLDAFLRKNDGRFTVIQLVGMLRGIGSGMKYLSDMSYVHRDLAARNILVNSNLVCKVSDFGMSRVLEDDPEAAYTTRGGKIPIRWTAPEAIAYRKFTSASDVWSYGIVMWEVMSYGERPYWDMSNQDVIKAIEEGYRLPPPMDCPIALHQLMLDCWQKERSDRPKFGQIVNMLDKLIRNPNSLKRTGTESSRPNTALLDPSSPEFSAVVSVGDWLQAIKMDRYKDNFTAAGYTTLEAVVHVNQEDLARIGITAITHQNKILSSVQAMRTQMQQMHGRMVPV
Test [9] concerns the target T3, Phosphorylase b kinase gamma catalytic chain, liver/testis isoform (Homo sapiens) (UniProt P15735).
T3 sequence (whole entry): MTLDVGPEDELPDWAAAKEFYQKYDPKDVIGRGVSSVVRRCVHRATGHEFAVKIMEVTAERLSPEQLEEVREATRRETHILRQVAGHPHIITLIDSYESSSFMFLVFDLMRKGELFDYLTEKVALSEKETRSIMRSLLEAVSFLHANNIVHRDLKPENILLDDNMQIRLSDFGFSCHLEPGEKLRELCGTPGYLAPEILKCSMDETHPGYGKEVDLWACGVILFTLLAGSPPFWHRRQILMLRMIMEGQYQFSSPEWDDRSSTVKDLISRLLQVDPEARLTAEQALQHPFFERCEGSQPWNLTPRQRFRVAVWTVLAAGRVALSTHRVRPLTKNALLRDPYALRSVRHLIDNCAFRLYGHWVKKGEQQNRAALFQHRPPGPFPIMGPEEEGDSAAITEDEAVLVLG
Description: Inhibition of human recombinant PHKg2 at 500 nM related to control ULK1.

Test [10] concerns the target Tyrosine-protein kinase Lck (Homo sapiens) (UniProt P06239). Description: Inhibition of human recombinant LCK at 500 nM related to control ULK1.

Chain of Tyrosine-protein kinase Lck (Homo sapiens) (P06239 2-509 limits assumed): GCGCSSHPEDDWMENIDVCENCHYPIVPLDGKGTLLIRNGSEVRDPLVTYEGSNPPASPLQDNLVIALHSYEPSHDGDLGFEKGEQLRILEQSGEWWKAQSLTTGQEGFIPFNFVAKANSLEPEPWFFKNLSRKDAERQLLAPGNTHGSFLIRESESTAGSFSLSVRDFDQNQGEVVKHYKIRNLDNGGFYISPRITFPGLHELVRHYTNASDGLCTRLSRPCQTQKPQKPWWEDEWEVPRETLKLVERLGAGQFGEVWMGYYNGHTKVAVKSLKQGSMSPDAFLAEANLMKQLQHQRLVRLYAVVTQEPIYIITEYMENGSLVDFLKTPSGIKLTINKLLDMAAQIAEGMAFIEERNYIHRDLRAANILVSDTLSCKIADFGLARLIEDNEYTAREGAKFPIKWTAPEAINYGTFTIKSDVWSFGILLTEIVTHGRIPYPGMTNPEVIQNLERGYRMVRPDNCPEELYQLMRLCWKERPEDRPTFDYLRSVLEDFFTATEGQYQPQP
Chain of Serine/threonine-protein kinase 32C (Homo sapiens) (Q86UX6 whole entry): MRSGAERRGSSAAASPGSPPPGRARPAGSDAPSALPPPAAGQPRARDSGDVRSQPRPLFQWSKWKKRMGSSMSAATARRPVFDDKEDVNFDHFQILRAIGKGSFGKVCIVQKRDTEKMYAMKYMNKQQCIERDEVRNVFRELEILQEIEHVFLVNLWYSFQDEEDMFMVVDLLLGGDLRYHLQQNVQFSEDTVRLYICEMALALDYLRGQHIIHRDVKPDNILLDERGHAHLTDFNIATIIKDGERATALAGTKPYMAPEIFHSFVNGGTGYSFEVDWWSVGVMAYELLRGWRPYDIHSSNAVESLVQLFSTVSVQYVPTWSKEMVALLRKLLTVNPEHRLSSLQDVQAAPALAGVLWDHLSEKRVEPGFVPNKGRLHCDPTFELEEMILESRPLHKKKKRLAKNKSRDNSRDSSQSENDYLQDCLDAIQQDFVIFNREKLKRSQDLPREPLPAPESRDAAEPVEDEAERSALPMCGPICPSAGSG
Chain of Fibroblast growth factor receptor 4 (Homo sapiens) (P22455 22-802 limits assumed): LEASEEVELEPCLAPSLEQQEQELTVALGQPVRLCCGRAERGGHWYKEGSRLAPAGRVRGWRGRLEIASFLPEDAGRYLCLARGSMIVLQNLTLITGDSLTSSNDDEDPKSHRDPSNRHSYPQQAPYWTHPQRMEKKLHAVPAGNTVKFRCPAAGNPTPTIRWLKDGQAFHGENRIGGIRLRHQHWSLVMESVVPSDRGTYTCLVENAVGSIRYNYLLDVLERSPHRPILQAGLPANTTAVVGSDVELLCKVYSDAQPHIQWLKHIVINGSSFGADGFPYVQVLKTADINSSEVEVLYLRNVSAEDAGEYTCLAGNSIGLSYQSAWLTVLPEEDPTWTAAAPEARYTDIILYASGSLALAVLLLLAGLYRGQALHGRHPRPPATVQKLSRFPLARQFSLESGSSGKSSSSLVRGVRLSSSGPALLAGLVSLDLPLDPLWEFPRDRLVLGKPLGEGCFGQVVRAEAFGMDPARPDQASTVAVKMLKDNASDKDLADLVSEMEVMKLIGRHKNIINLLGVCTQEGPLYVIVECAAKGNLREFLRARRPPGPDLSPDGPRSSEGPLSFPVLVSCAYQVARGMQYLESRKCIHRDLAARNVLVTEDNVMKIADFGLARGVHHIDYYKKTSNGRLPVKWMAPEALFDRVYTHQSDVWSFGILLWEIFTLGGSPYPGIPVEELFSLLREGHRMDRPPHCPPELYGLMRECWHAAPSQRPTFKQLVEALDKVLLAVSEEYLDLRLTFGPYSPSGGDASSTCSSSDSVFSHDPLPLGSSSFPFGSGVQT

Broadly, the inhibition is the relative decrease from the control value, in per cent. Regarding `CC(C)[C@H](NC(=O)c1cc(-c2cnn3cc(-c4ccc(OCCN5CCCCC5)cc4)cnc23)cs1)C(F)(F)F`, the inhibition in [1] came to 0%. In addition, the fold change (FC) came out at 0.03 in [2] and 0 in test [3].
With `O=C(N[C@@H](C1CC1)C(F)(F)F)c1cc(-c2cnn3cc(-c4ccc(F)cc4)cnc23)cs1`, the fold change (FC) in test [4] is 0; in test [6], 0; in test [7], 0.01. The inhibition in test [5] and in [8] was 0% throughout.
As to `CNC(=O)c1ccccc1Oc1nc(Nc2cc(OC)c(OC)c(OC)c2)ncc1Br`, the fold change (FC) amounted to 0 in [9] and 0.18 in test [10].

For the origin of these results see ChEMBL document CHEMBL5653631, “A Potent and Selective ULK1 Inhibitor Suppresses Autophagy and Sensitizes Cancer Cells to Nutrient Stress” (iScience, 2018).
